Measurements reported in publication PMC7481357, “N-terminal Myristoylation Enhanced the Antimicrobial Activity of Antimicrobial Peptide PMAP-36PW” (Frontiers in Cellular and Infection Microbiology, 2020).

How the values were obtained:
[1] = tested on: L. monocytogenes CICC 21634; type: cell-based, Listeria monocytogenes; conditions: L. monocytogenes CICC 21634; * indicates resistant (CLSI, 2020)
Procedure: (§1) The MICs of Myr-36PW in vitro were measured through microdilution in accordance with the Clinical and Laboratory Standards Institute (CLSI, [2020]). The bacterial cells were cultured for 12 h at 37°C in the appropriate medium and then diluted to 1 × 10^6 CFU/mL. Equal volumes (100 μL) of bacterial cell suspension and two-fold serially diluted different concentrations peptides (0.0039–256 μg/mL) were added to each well of the sterile 96-well plate. The samples were incubated for 18 h at 37°C. After incubation, the MICs of the peptides were determined by evaluating the growth based on the OD600 of the cultures.

S. aureus ATCC 25923 [2] = type: cell-based, Staphylococcus aureus; conditions: S. aureus ATCC 25923; * indicates resistant (CLSI, 2020)
Procedure: as §1

[3] = tested on: L. monocytogenes CICC 21634; assay: Inhibition zone assay (disk diffusion); type: cell-based, Listeria monocytogenes; set-up: key: +, means the peptide has antibacterial activity; conditions: disk 10 μg peptide, 18 h at 37°C, * P < 0.05, ** P < 0.01 vs PMAP-36PW
Procedure: (§2) The inhibition zone assay was performed through the disk diffusion to evaluate the antimicrobial activity of Myr-36PW in vitro (Dunne et al., [2017]). The four above-mentioned bacterial strains were used as experimental strains, with L. monocytogenes CICC 21634 cultured in BHI medium, and P. aeruginosa GIM 1.551 cultured in TSB medium. The bacterial cells were cultured for 12 h at 37°C in the appropriate medium, and the bacterial cell suspension was spread on LB agar. The disks containing 10 μg of peptides (1 μg/μL) were attached to the solid medium and incubated at 37°C for 18 h. Finally the diameter of the inhibition zone was measured.

S. aureus ATCC 25923 [4] = assay: Inhibition zone assay (disk diffusion); type: cell-based, Staphylococcus aureus; set-up: key: +, means the peptide has antibacterial activity; conditions: disk 10 μg peptide, 18 h at 37°C, * P < 0.05, ** P < 0.01 vs PMAP-36PW
Procedure: as §2

P. aeruginosa GIM 1.551 [5] = type: cell-based, Pseudomonas aeruginosa; conditions: P. aeruginosa GIM 1.551; * indicates resistant (CLSI, 2020)
Procedure: as §1

S. typhimurium SL 1344 [6] = assay: Inhibition zone assay (disk diffusion); type: cell-based, Salmonella typhimurium; set-up: key: +, means the peptide has antibacterial activity; conditions: disk 10 μg peptide, 18 h at 37°C, * P < 0.05, ** P < 0.01 vs PMAP-36PW
Procedure: as §2

S. typhimurium SL 1344 [7] = type: cell-based, Salmonella typhimurium; conditions: S. typhimurium SL 1344; * indicates resistant (CLSI, 2020)
Procedure: as §1

P. aeruginosa GIM 1.551 [8] = assay: Inhibition zone assay (disk diffusion); type: cell-based, Pseudomonas aeruginosa; set-up: key: +, means the peptide has antibacterial activity; conditions: disk 10 μg peptide, 18 h at 37°C, * P < 0.05, ** P < 0.01 vs PMAP-36PW
Procedure: as §2

MICs of different classes of antibiotics [1]: 32* μg/mL
MICs of different classes of antibiotics (S. aureus ATCC 25923 [2]): <0.25 µg/mL
MICs of different classes of antibiotics (P. aeruginosa GIM 1.551 [5]): 64* μg/mL
MICs of different classes of antibiotics (S. typhimurium SL 1344 [7]): 4 µg/mL
SMILES: CO/N=C(\C(=O)N[C@@H]1C(=O)N2C(C(=O)[O-])=C(CSC(=O)c3ccco3)CS[C@H]12)c1csc(N)n1.[Na+] [Ceftiofur Sodium, Ceftiofur sodium]
In vitro antibacterial activity (disk diffusion) [3]: +
In vitro antibacterial activity (disk diffusion) (S. aureus ATCC 25923 [4]): +
In vitro antibacterial activity (disk diffusion) (S. typhimurium SL 1344 [6]): +
In vitro antibacterial activity (disk diffusion) (P. aeruginosa GIM 1.551 [8]): +
